Laboratory results reported in ChEMBL document CHEMBL1151449, “In vitro activity of DC-159a, a new broad-spectrum fluoroquinolone, compared with that of other agents against drug-susceptible and -resistant pneumococci” (2008).
≈ marks a conversion by molar mass, not a printed value.

Tests used:
Streptococcus pneumoniae [1] = assay: Antibacterial activity against Streptococcus pneumoniae HMC 3041 after 50 passages by broth microdilution method; type: functional
Streptococcus pneumoniae [2] = assay: Antibacterial activity against azithromycin-susceptible Streptococcus pneumoniae ATCC 49619 by agar dilution method; type: functional
Streptococcus pneumoniae [3] = assay: Antibacterial activity against penicillin-resistant and quinolone-susceptible Streptococcus pneumoniae HMC 228 expressing ermB after 28 passages by broth microdilution method; type: functional
Streptococcus pneumoniae [4] = assay: Antibacterial activity against macrolide-, quinolone-susceptible and penicillin-intermediate Streptococcus pneumoniae HMC 100 after 50 passages by broth microdilution method; type: functional
Streptococcus pneumoniae [5] = assay: Antibacterial activity against Streptococcus pneumoniae HMC 1150 harboring S81C mutation in quinolone-resistant determining regions of GyrA gene, S79F mutation in QRDR of ParC gene and I460V mutation in QRDR of ParE gene by agar dilution method; type: functional
Streptococcus pneumoniae [6] = assay: Antibacterial activity against penicillin-resistant and quinolone-susceptible Streptococcus pneumoniae HMC 3583 expressing mefA after 46 passages by broth microdilution method; type: functional
Streptococcus pneumoniae [7] = assay: Antibacterial activity against penicillin-resistant and quinolone-susceptible Streptococcus pneumoniae HMC 228 expressing ermB and harboring S81F mutation in quinolone-resistant determining regions of GyrA gene, S79Y mutation in QRDR of ParC gene and I460V mutation in QRDR of ParE gene after 38 passages with gatifloxacin measured after 10 daily antibiotic-free subculturing by multi-step resistance selection technique; type: functional
Streptococcus pneumoniae [8] = assay: Antibacterial activity against penicillin-resistant and quinolone-susceptible Streptococcus pneumoniae HMC 3583 expressing mefA after 49 passages by broth microdilution method; type: functional
Streptococcus pneumoniae [9] = assay: Antibacterial activity against penicillin-resistant and quinolone-susceptible Streptococcus pneumoniae HMC 228 expressing ermB after 38 passages by broth microdilution method; type: functional
Streptococcus pneumoniae [10] = assay: Antibacterial activity against penicillin-resistant and quinolone-susceptible Streptococcus pneumoniae HMC 3583 expressing mefA after 50 passages by broth microdilution method; type: functional
Streptococcus sp. [11] = assay: Antibacterial activity against levofloxacin-intermediate -resistant Streptococcus sp. by agar dilution method; type: functional
Streptococcus sp. [12] = assay: Antibacterial activity against Streptococcus sp. by agar dilution method; type: functional
Streptococcus pneumoniae [13] = assay: Antibacterial activity against penicillin-resistant and quinolone-susceptible Streptococcus pneumoniae HMC 228 expressing ermB after 50 passages by broth microdilution method; type: functional
Streptococcus pneumoniae [14] = assay: Antibacterial activity against macrolide-, quinolone-susceptible and penicillin-intermediate Streptococcus pneumoniae HMC 100 after 42 passages by broth microdilution method; type: functional
Streptococcus pneumoniae [15] = assay: Antibacterial activity against penicillin-, macrolide-susceptible and quinolone-resistant Streptococcus pneumoniae HMC 1074 harboring S81F mutation in quinolone-resistant determining regions of GyrA gene, S79F mutation in QRDR of ParC gene and I460V mutation in QRDR of ParE gene after 27 passages by broth microdilution method; type: functional
Streptococcus pneumoniae [16] = assay: Antibacterial activity against penicillin-resistant and quinolone-susceptible Streptococcus pneumoniae HMC 3583 expressing mefA after 41 passages by broth microdilution method; type: functional
Streptococcus pneumoniae [17] = assay: Antibacterial activity against penicillin-, macrolide- and quinolone-susceptible Streptococcus pneumoniae HMC 63 after 34 passages by broth microdilution method; type: functional
Streptococcus pneumoniae [18] = assay: Antibacterial activity against penicillin-resistant and quinolone-susceptible Streptococcus pneumoniae HMC 228 expressing ermB after 36 passages by broth microdilution method; type: functional
Streptococcus pneumoniae [19] = assay: Antibacterial activity against macrolide-, quinolone-susceptible and penicillin-intermediate Streptococcus pneumoniae HMC 100 after 22 passages by broth microdilution method; type: functional
Streptococcus pneumoniae [20] = assay: Antibacterial activity against macrolide-, quinolone-susceptible and penicillin-intermediate Streptococcus pneumoniae HMC 99 after 41 passages by broth microdilution method

| Compound | MIC (Streptococcus pneumoniae [1]) | MIC50 (Streptococcus pneumoniae [2]) | MIC90 (Streptococcus pneumoniae [2]) | MIC (Streptococcus pneumoniae [4]) | MIC (Streptococcus pneumoniae [5]) | MIC (Streptococcus pneumoniae [7]) | MIC (Streptococcus pneumoniae [10]) | MIC (Streptococcus pneumoniae [13]) | also measured |
| --- | --- | --- | --- | --- | --- | --- | --- | --- | --- |
| COc1c(N2CCNC(C)C2)c(F)cc2c(=O)c(C(=O)O)cn(C3CC3)c12 (configuration not stated) [GATIFLOXACIN] | 0.5 µg/mL (≈ 1.33 µM) | 0.5 µg/mL (≈ 1.33 µM) | 4 µg/mL (≈ 10.7 µM) | 0.5 µg/mL (≈ 1.33 µM) | 4 µg/mL (≈ 10.7 µM) | 4 µg/mL (≈ 10.7 µM) | – | – | MIC (Streptococcus pneumoniae [3]): 4 µg/mL (≈ 10.7 µM); MIC (Streptococcus pneumoniae [6]): 4 µg/mL (≈ 10.7 µM) |
| COc1c(N2CC3(CC3)[C@](C)(N)C2)c(F)cc2c(=O)c(C(=O)O)cn([C@@H]3C[C@@H]3F)c12.O | 0.125 µg/mL | 0.12 µg/mL | 0.5 µg/mL | 0.5 µg/mL | 0.5 µg/mL | 1 µg/mL | 1 µg/mL | 1 µg/mL | MIC (Streptococcus pneumoniae [8]): 1 µg/mL; MIC (Streptococcus pneumoniae [9]): 1 µg/mL; MIC90 (Streptococcus sp. [11]): 1 µg/mL; MIC90 (Streptococcus sp. [12]): 0.125 µg/mL |
| CO/N=C1\CN(c2nc3c(cc2F)c(=O)c(C(=O)O)cn3C2CC2)CC1CN (configuration not stated) [GEMIFLOXACIN] | 0.03 µg/mL (≈ 0.077 µM) | 0.03 µg/mL (≈ 0.077 µM) | 0.25 µg/mL (≈ 0.642 µM) | – | 0.25 µg/mL (≈ 0.642 µM) | > 64 µg/mL | – | 0.25 µg/mL (≈ 0.642 µM) | MIC (Streptococcus pneumoniae [14]): 1 µg/mL (≈ 2.57 µM); MIC (Streptococcus pneumoniae [15]): 4 µg/mL (≈ 10.3 µM); MIC (Streptococcus pneumoniae [16]): 0.25 µg/mL (≈ 0.642 µM); MIC (Streptococcus pneumoniae [17]): 0.5 µg/mL (≈ 1.28 µM) |
| COc1c(N2C[C@@H]3CCCN[C@@H]3C2)c(F)cc2c(=O)c(C(=O)O)cn(C3CC3)c12 [MOXIFLOXACIN] | 0.25 µg/mL (≈ 0.623 µM) | – | – | – | 1 µg/mL (≈ 2.49 µM) | 4 µg/mL (≈ 9.96 µM) | 0.5 µg/mL (≈ 1.25 µM) | – | MIC (Streptococcus pneumoniae [18]): 2 µg/mL (≈ 4.98 µM); MIC (Streptococcus pneumoniae [19]): 2 µg/mL (≈ 4.98 µM); MIC (Streptococcus pneumoniae [20]): 4 µg/mL (≈ 9.96 µM) |
